According to the supplement of paper PMC11451515:

Tested on: NOMO1
Test: cell viability relative to DMSO control; higher = less cytotoxic
Conditions: 48 h
In short: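 Viability is a per-plate percentage relative to DMSO wells, with cell-free wells as background. CellTiter-Glo One luminescence was read after 48 h at 37°C on 1536-well plates (5 μl) of NOMO1 or SEM (500 cells/well) or P12-Ichikawa (1000 cells/well) leukemia cells. The cells had been adapted for at least four passages in each medium and pin-dosed with library compounds in DMSO from 47 μM to 0.79 nM in 11 threefold steps.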

[1] = HPLM + 10% dialyzed FBS, 0.000781 µM
[2] = HPLM + 10% dialyzed FBS, 0.00234 µM
[3] = HPLM + 10% dialyzed FBS, 0.00702 µM
[4] = HPLM + 10% dialyzed FBS, 0.0211 µM
[5] = HPLM + 10% dialyzed FBS, 0.0632 µM
[6] = HPLM + 10% dialyzed FBS, 0.19 µM
[7] = HPLM + 10% dialyzed FBS, 0.569 µM
[8] = HPLM + 10% dialyzed FBS, 1.71 µM
[9] = HPLM + 10% dialyzed FBS, 5.12 µM
[10] = HPLM + 10% dialyzed FBS, 15.4 µM
[11] = HPLM + 10% dialyzed FBS, 46.1 µM
[12] = RPMI 5 mM glucose + 10% FBS, 0.000781 µM
[13] = RPMI 5 mM glucose + 10% FBS, 0.00234 µM
[14] = RPMI 5 mM glucose + 10% FBS, 0.00702 µM
[15] = RPMI 5 mM glucose + 10% FBS, 0.0211 µM
[16] = RPMI 5 mM glucose + 10% FBS, 0.0632 µM
[17] = RPMI 5 mM glucose + 10% FBS, 0.19 µM
[18] = RPMI 5 mM glucose + 10% FBS, 0.569 µM
[19] = RPMI 5 mM glucose + 10% FBS, 1.71 µM
[20] = RPMI 5 mM glucose + 10% FBS, 5.12 µM
[21] = RPMI 5 mM glucose + 10% FBS, 15.4 µM
[22] = RPMI 5 mM glucose + 10% FBS, 46.1 µM
[23] = RPMI 5 mM glucose + 10% dialyzed FBS, 0.000781 µM
[24] = RPMI 5 mM glucose + 10% dialyzed FBS, 0.00234 µM
[25] = RPMI 5 mM glucose + 10% dialyzed FBS, 0.00702 µM
[26] = RPMI 5 mM glucose + 10% dialyzed FBS, 0.0211 µM
[27] = RPMI 5 mM glucose + 10% dialyzed FBS, 0.0632 µM
[28] = RPMI 5 mM glucose + 10% dialyzed FBS, 0.19 µM
[29] = RPMI 5 mM glucose + 10% dialyzed FBS, 0.569 µM
[30] = RPMI 5 mM glucose + 10% dialyzed FBS, 1.71 µM
[31] = RPMI 5 mM glucose + 10% dialyzed FBS, 5.12 µM
[32] = RPMI 5 mM glucose + 10% dialyzed FBS, 15.4 µM
[33] = RPMI 5 mM glucose + 10% dialyzed FBS, 46.1 µM

Structure (SMILES)	cell viability [1]	cell viability [2]	cell viability [3]	cell viability [4]	cell viability [5]	cell viability [6]	cell viability [7]	cell viability [8]	cell viability [9]	cell viability [10]	cell viability [11]	cell viability [12]	cell viability [13]	cell viability [14]	cell viability [15]	cell viability [16]	cell viability [17]	cell viability [18]	cell viability [19]	cell viability [20]	cell viability [21]	cell viability [22]	cell viability [23]	cell viability [24]	cell viability [25]	cell viability [26]	cell viability [27]	cell viability [28]	cell viability [29]	cell viability [30]	cell viability [31]	cell viability [32]	cell viability [33]
O=C1NC(O)CCN1[C@@H]1O[C@H](CO)[C@@H](O)[C@H]1O (some centres not stated)	145%	124%	123%	142%	113%	131%	143%	116%	111%	92.2%	21%	121%	110%	104%	112%	110%	110%	105%	105%	109%	108%	32.3%	112%	108%	113%	108%	110%	110%	125%	126%	111%	106%	34.8%
COC(=O)[C@@H](N)CCCNC(=N)N[N+](=O)[O-]	92.9%	97.2%	105%	88%	103%	118%	99.1%	96.7%	104%	93.9%	103%	90%	85.6%	96.3%	88.9%	86.9%	86.3%	92.4%	88.1%	92.6%	93.3%	102%	76.9%	96.3%	93.8%	95.7%	97.4%	103%	97.9%	93.4%	94.2%	101%	105%
CCNc1cc(NC2CCC(O)CC2)nc(Nc2ccc3c(ccn3Cc3ccccc3)c2)n1 (configuration not stated)	113%	121%	126%	124%	147%	118%	127%	139%	121%	116%	120%												115%	123%	124%	142%	141%	129%	148%	121%	150%	145%	106%
NC(=O)c1cccc(N)c1	116%	107%	119%	114%	135%	134%	124%	130%	126%	125%	101%	97%	104%	114%	120%	104%	123%	105%	97.8%	109%	113%	127%	102%	104%	114%	116%	109%	133%	116%	110%	112%	106%	115%
N\C1=N\C2=C(N=C[N]2COC(CO)CO)C(=O)N1	88.7%	110%	116%	114%	131%	120%	133%	109%	110%	92.2%	5.43%	110%	119%	114%	118%	103%	107%	121%	110%	116%	101%	4.52%	99.5%	112%	99.5%	102%	122%	117%	117%	112%	99.8%	95.5%	3.67%
CCOC1=CC(=CC=C1C/2=N/[C@@](C)(C3=CC=C(Cl)C=C3)[C@](C)(N2C(=O)N4CCN(CC4)CC(=O)N5CCOCC5)C6=CC=C(Cl)C=C6)C(C)(C)C												93.3%	90.6%	96.3%	105%	112%	121%	98.6%	99.3%	102%	91.6%	97%	92.6%	113%	102%	102%	126%	120%	124%	100%	81.8%	90.1%	86.2%
COC[C@H]1OC(=O)C2=COC3=C2[C@@]1(C)\C4=C(\[C@@H]5CC[C@H](O)[C@@]5(C)C[C@H]4OC(C)=O)C3=O	106%	112%	117%	111%	132%	134%	118%	113%	88.6%	93.1%	70.6%	98.9%	111%	117%	107%	123%	114%	117%	109%	110%	102%	87.6%	88.2%	103%	110%	106%	118%	126%	115%	119%	97.9%	94%	83.5%
COc1cccc2c1C(=O)c1c(O)c3c(c(O)c1C2=O)C[C@@](O)(C(C)=O)C[C@@H]3O[C@H]1C[C@H](N)[C@H](O)[C@H](C)O1	98.6%	107%	108%	114%	111%	81.5%	12.4%	7.35%	5.97%	5.19%	4.98%	99%	104%	106%	99.2%	108%	78.6%	9.07%	4.79%	4.48%	5.23%	3.6%	91.6%	113%	107%	115%	108%	73.4%	9.73%	6.25%	4.58%	4.86%	4.92%
